From patent US20140031283A1, “ANTICANCER FUSION PROTEIN” (ADAMED SP. Z O.O., priority 2011, published 2014)

What was measured:
Assay type in all cases: in vivo
[1] = test system: human liver cancer model HepG2; assay: HepG2 liver cancer xenograft in Crl:SHO-Prkdc^scidHr^hr mice; settings: 30 mg/kg i.v. six times every second day, 33rd day
Experimental: (§1) Antitumor activity of protein preparations was tested in a mouse model of human colon cancer HCT116, human colon cancer Colo205, human colon cancer model SW620, human liver cancer model HepG2, and human lung cancer models NCI-H460 and NCI-H460-Luc2.
The HepG2cells were maintained in MEM (HyClone, Logan, Utah, USA) supplemented with 10% fetal calf serum and 2 mM glutamine. On the day of mice grafting, the cells were detached from the support by washing the cells with trypsin (Invitrogen), then the cells were centrifuged at 1300 rpm, 4°C., 8 min., suspended in HBSS buffer (Hanks medium), counted and diluted to the concentration of 25×10^6 cells/ml.
Examination of antitumor activity of proteins of the invention was conducted on 7-9 week-old CD-nude (Crl:CD1-Foxn1^nu 1) or 4-6 week-old Crl:SHO-Prkdc^scidHr^hr mice obtained from Charles River Germany. Mice were kept under specific pathogen-free conditions with free access to food and demineralised water (ad libitum). All experiments on animals were carried in accordance with the guidelines: “Interdisciplinary Principles and Guidelines for the Use of Animals in Research. Marketing and Education” issued by the New York Academy of Sciences' Ad Hoc Committee on Animal Research and were approved by the IV Local Ethics Committee on Animal Experimentation in Warsaw (No. 71/2009). […]

[2] = test system: human colon cancer model SW620; assay: SW620 colon cancer xenograft in Crl:SHO-Prkdc^scidHr^hr mice; settings: 30 mg/kg i.v. six times every second day, 31st day
Experimental: as §1
The HCT116 (in mice Crl:SHO-Prkdc^scidHr^hr) were alternatively maintained in McCoy's medium (Hyclone, Logan, Utah, USA) supplemented with 10% fetal calf serum and 2 mM glutamine. On the day of mice grafting, the cells were detached from the support by washing the cells with trypsin (Invitrogen), then the cells were centrifuged at 1300 rpm, 4° C., 8 min., suspended in HBSS buffer (Hanks medium), counted and diluted to the concentration of 25×10^6 cells/ml. SW620 cells were maintained in DMEM (HyClone, Logan, Utah, USA) supplemented with 10% fetal calf serum and 2 mM glutamine. On the day of mice grafting, the cells were detached from the support by washing the cells with trypsin (Invitrogen), then the cells were centrifuged at 1300 rpm, 4° C., 8 min., suspended in HBSS buffer (Hanks medium), counted and diluted to the concentration of 25×10^6 cells/ml.
Examination of antitumor activity of proteins of the invention was conducted on 7-9 week-old CD-nude (Crl:CD1-Foxn1^nu 1) or 4-6 week-old Crl:SHO-Prkdc^scidHr^hr mice obtained from Charles River Germany. […]

[3] = test system: human lung cancer NCI-H460; assay: NCI-H460 lung cancer xenograft in Crl:SHO-PrkdcscidHrhr mice; settings: 30 mg/kg i.v. six times every second day, 28th day
Experimental: as §1
The HCT116 (in mice Crl:CD1-Foxn1^nu 1), Colo205, NCI-H460, NCI-H460-Luc2 cells were maintained in RPMI 1640 medium (Hyclone, Logan, Utah, USA) mixed in the ratio of 1:1 with Opti-MEM (Invitrogen, Cat.22600-134) supplemented with 10% fetal calf serum and 2 mM glutamine. On the day of mice grafting, the cells were detached from the support by washing the cells with trypsin (Invitrogen), then the cells were centrifuged at 1300 rpm, 4° C., 8 min., suspended in HBSS buffer (Hanks medium), counted and diluted to the concentration of 25×10^6 cells/ml.
Examination of antitumor activity of proteins of the invention was conducted on 7-9 week-old CD-nude (Crl:CD1-Foxn1^nu 1) or 4-6 week-old Crl:SHO-Prkdc^scidHr^hr mice obtained from Charles River Germany. Mice were kept under specific pathogen-free conditions with free access to food and demineralised water (ad libitum). All experiments on animals were carried in accordance with the guidelines: “Interdisciplinary Principles and Guidelines for the Use of Animals in Research. […]

“rhTRAIL114-281: recombinant human soluble TRAIL, amino acids 114-281 of hTRAIL, used as the comparative reference” was tested, and the “tumor growth inhibition (TGI) relative to the control” value [1] was 12.6%, the “tumor growth inhibition (TGI) relative to the control” value [2] was −9% and the “tumor growth inhibition (TGI) relative to the control” value [3] was 17.5%.
